These results are taken from patent US5811073A, “Method for radioisotopic detection and localization of inflammation in a host” (President and Fellows of Harvard College, priority 1995, dated 1998).

In data set [1] the test system is sterile inflammatory lesions (pus capsule; turpentine oil). The experiment in a line: Gamma camera imaging of rats with sterile inflammation. The format is in vivo, Male Sprague-Dawley rats. The note with it: for Figure of Merit (FOM), equation (1): 0.2 mCi ^67 Ga-citrate; for Figure of Merit (FOM), equation (1) / Pus Capsule to Contralateral Tissue (T/B) Ratio, gamma camera imaging: 1.5 mCi/rat ^123 IUdR; for Figure of Merit (FOM), equation (1) / Pus Capsule to Contralateral Tissue (T/B) Ratio, gamma camera imaging / Figure of Merit (FOM), equation (2): n=4, mean ± SD; for Pus Capsule to Contralateral Tissue (T/B) Ratio, gamma camera imaging: 0.2 mCi/rat ^67 Ga. As to the method: Male Sprague-Dawley rats weighing between 150-200g were obtained from the Charles River Breeding Laboratories in Burlington, Mass. […] To anaesthetize the animals during testing, ketamine (40 mg/kg) and xylazine (10 mg/kg) were administered intra peritoneally (1.0 ml/kg) prior to surgical procedures. For the imaging studies, each animal received 1.5 ml/kg of a mixture of ketamine (75 mg/kg), xylazine (39 mg/kg) and acepromazine (0.75 mg/kg).
To induce a localized sterile inflammation, 0.1 ml of turpentine oil (Rectified Turpentine Oil for medical use, Gentry Corporation, Fair Lawn, N.J.) was injected into the left thigh muscle of anesthetized rats.
A further set of rats prepared as described in Examples 1 and 2 received intravenous injections of either ^123 IUdR (at a dose of about 1.5 mCi/rat) or gallium-67 citrate (at a dose of about 0.2 mCi/rat). After 1, 3 and 24 hours, rats from each group were anesthetized and imaged using a gamma camera (the General Electric STARCAM™ 400 fitted with parallel hole medium collimator). Anterior images were obtained 10^6 counts/frame except for the 24 h period for ^123 IUdR where a 15 min scan was carried out. A 20% window was present over the 159 keV photopeaks of ^67 Ga (93 kev, 184 keV, and 298 keV).
Regions of interest (ROI) were drawn over the inflamed areas (3×4 pixel) and over the contralateral area in each rat. Total counts in these regions were used to calculate Target to Background (T/B) ratios and to calculate Figure of Merit (FOM; statistical significance) values using either of the following equations:
FOM=(At -Ab)^2 /(At +Ab) (1)
At =counts in ROI (3×4) over pus capsule; and
Ab =counts in ROI (3×4) over contralateral muscle.
Equation (1) is derived from the Report of the National Council on Radiation Protection and Measurements, Nuclear Medicine, "Factors Influencing the Choice and Use of Radionuclides in Diagnosis and Therapy", Report No. 70, p.79 (NRCP, Bethesda, Md., 1982). Equation (2) is derived from Rubin et al., J. Nucl. Med. 30:385-389, 1989. For purposes of reference, the disclosures of each of these publications is incorporated herein.

Data set [2] shares this test system. The experiment in a line: Biodistribution (pus capsule to contralateral tissue ratio) in rats with sterile inflammation. The note with it: for Pus Capsule and Contralateral Tissue (T/B) Ratio, biodistribution: sterile inflammation, i.v., 10 μCi/rat ^67 Ga (n=2), 5 μCi/rat ^125 IUdR (n=6), mean ± SD.
The nature of data set [3]: Total photon efficiency of gamma camera. Type of data set: physicochemical. Here is the method: For use in calculating dosages, the relative photon efficiencies of ^123 IUdR and of gallium-67 were determined.
Total Photon Efficiency of Gamma Camera
With Respect to ^123 IUdR and gallium-67
keV* Frequency X Efficiency

The test system of data set [4] is sterile and bacterial inflammation. The note with it: i.v., 200-300 μCi gallium-67 citrate, 300-500 μCi ^99m Tc-human serum albumin, 100-150 μCi ^111 In-IgG or ^125 I-IgG; cited from earlier work.
The conditions of data set [5]: intravenous; adult man; ^123 I-iodine thyroid blocked; cited from earlier work.

As to `O=C([O-])CC(O)(CC(=O)[O-])C(=O)[O-].[67Ga+3]` [^67 Ga, gallium-67 citrate], in data set [1] (1, 3, and 24 h, i.v.), the “detection of the lesion in scintigraphic images (in words)” value is recorded as “can clearly detect the lesion”. The “Figure of Merit (FOM), equation (1)” value in data set [1] (1 h, i.v.) was 1037 ± 215; in data set [1] (3 h, i.v.), 1581 ± 143; in data set [1] (24 h, i.v.) it was 1958 ± 149. The “Pus Capsule to Contralateral Tissue (T/B) Ratio, gamma camera imaging” value was 2.76 ± 0.18 in data set [1] (1 h, i.v.); 3.61 ± 0.15 in data set [1] (3 h, i.v.); 5.09 ± 0.44 in data set [1] (24 h, i.v.). Moreover, the “Figure of Merit (FOM), equation (2)” value was 1.75 ± 0.2 in data set [1] (1 h, i.v.); 2.61 ± 0.18 in data set [1] (3 h, i.v.); 4.09 ± 0.50 in data set [1] (24 h, i.v.). Also, in data set [1] (3 hrs), the “efficacy by imaging T/B ratio, comparison of agents (in words)” value is reported as “equal”. Moreover, the “imaging T/B ratios, comparison of agents (in words)” value in data set [1] (by 24 hrs) is given as “higher T/B ratios”. Moreover, the “FOM values, comparison of agents (in words)” value in data set [1] (later time points (3 hrs and 24 hrs)) is “equal or higher FOM values”. Besides, the “concentration within lesion (pus capsule) vs contralateral tissues (in words)” value in data set [2] (sterile inflammation (turpentine oil)) was “to a greater extent than in the contralateral tissues”. For the same molecule, the “Pus Capsule and Contralateral Tissue (T/B) Ratio, biodistribution” value was 3.55 ± 0.24 in data set [2] (3 h) and 2.85 ± 0.64 in data set [2] (24 h). For the same molecule, the “Total Photon Efficiency” value in data set [3] (91.3 keV) was found to be 0.0296; in data set [3] (93.3 keV), 0.37; in data set [3] (184.6 keV) it was 0.1326; in data set [3] (209 keV), 0.01515; in data set [3] (300.2 keV) it was 0.0415; in data set [3] (sum over photopeaks (^67 Ga), 159 keV (^123 I)) it was 0.59. In data set [4], the “time of maximum target to background tissue ratio for image intensity” value is 3 h. Further, in data set [5], the “whole body effective dose” value was 0.44 rad/mCi.
